Earlier results as cited in patent US20150080442A1, “TRANSMUCOSAL DRUG DELIVERY SYSTEM” (PHARMACEUTICAL PRODUCTIONS INC., priority 2013, published 2015).

What was measured:
[1] = pH 6.8

Structure (SMILES) | mean absolute oral bioavailability | nicotine in the free base form [1]
CN(C)CCc1c[nH]c2ccc(C[C@H]3COC(=O)N3)cc12 [Zolmitriptan] | approximately 40% | 
CN1CCCC1c1cccnc1 (centres unmarked) [nicotine] |  | about 10%
